Source: PubChem BioAssay AID2060601 (Molecular Pharmacology Branch, DTP, NCI, 2025)

System: 874868-142-R-J2-PDC complex spheroids, growth % test/control
Assay: Anticancer human tumor 874868-142-R-J2-PDC patient-derived head and neck squamous carcinoma cell line growth inhibition [CLK]
Details: for IC50: curve of first compound; for viability, T/C: stronger effect = lower value
Method in brief: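 Patient-derived tumor cells grown as complex spheroids with HUVEC endothelial cells and mesenchymal stem cells, treated with drug combinations. Concentrations descend in half-log steps from near clinical Cmax, or from 10 microM if Cmax unknown.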

[1] = second compound 0.0316 µM, first compound 0.0316 µM
[2] = second compound 0.0316 µM, first compound 0.1 µM
[3] = second compound 0.1 µM, first compound 0.0316 µM
[4] = second compound 0.1 µM, first compound 0.1 µM
[5] = second compound 0.316 µM, first compound 0.0316 µM
[6] = second compound 0.316 µM, first compound 0.1 µM
[7] = second compound 1 µM, first compound 0.0316 µM
[8] = second compound 1 µM, first compound 0.1 µM
[9] = second compound 3.16 µM, first compound 0.0316 µM
[10] = second compound 3.16 µM, first compound 0.1 µM
[11] = second compound 10 µM, first compound 0.0316 µM
[12] = second compound 10 µM, first compound 0.1 µM
[13] = second compound 0.0316 µM, first compound 0.316 µM
[14] = second compound 0.0316 µM, first compound 1 µM
[15] = second compound 0.0316 µM, first compound 3.16 µM
[16] = second compound 0.0316 µM, first compound 10 µM
[17] = second compound 0.1 µM, first compound 0.316 µM
[18] = second compound 0.1 µM, first compound 1 µM
[19] = second compound 0.1 µM, first compound 3.16 µM
[20] = second compound 0.1 µM, first compound 10 µM
[21] = second compound 0.316 µM, first compound 0.316 µM
[22] = second compound 0.316 µM, first compound 1 µM
[23] = second compound 0.316 µM, first compound 3.16 µM
[24] = second compound 0.316 µM, first compound 10 µM
[25] = second compound 1 µM, first compound 0.316 µM
[26] = second compound 1 µM, first compound 1 µM
[27] = second compound 1 µM, first compound 3.16 µM
[28] = second compound 1 µM, first compound 10 µM
[29] = second compound 3.16 µM, first compound 0.316 µM
[30] = second compound 3.16 µM, first compound 1 µM
[31] = second compound 3.16 µM, first compound 3.16 µM
[32] = second compound 3.16 µM, first compound 10 µM
[33] = second compound 10 µM, first compound 0.316 µM
[34] = second compound 10 µM, first compound 1 µM
[35] = second compound 10 µM, first compound 3.16 µM
[36] = second compound 10 µM, first compound 10 µM
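Also: spheroids exposed to the compounds for 7 days.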
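For viability, T/C in this document: 100% = DMSO vehicle control viability.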

Cn1ncnc1[C@H]1c2n[nH]c(=O)c3cc(F)cc(c23)N[C@@H]1c1ccc(F)cc1 + CNC(=O)c1ccc(Nc2nc(OC3CCCC3)c3c(-c4ccc5nc(C)oc5c4)c[nH]c3n2)c(OC)c1
IC50 (second compound 0.0316 µM): > 0.1 µM | IC50 (second compound 0.1 µM): > 0.1 µM | IC50 (second compound 0.316 µM): > 0.1 µM | IC50 (second compound 1 µM): < 0.000316 µM | IC50 (second compound 3.16 µM): < 0.000316 µM | IC50 (second compound 10 µM): < 0.000316 µM | viability, T/C (second compound 0.0316 µM, first compound 0.000316 µM): 97.6% | viability, T/C (second compound 0.0316 µM, first compound 0.001 µM): 92.7% | viability, T/C (second compound 0.0316 µM, first compound 0.00316 µM): 102% | viability, T/C (second compound 0.0316 µM, first compound 0.01 µM): 94.6% | viability, T/C [1]: 85.1% | viability, T/C [2]: 73.7% | viability, T/C (second compound 0.1 µM, first compound 0.000316 µM): 85% | viability, T/C (second compound 0.1 µM, first compound 0.001 µM): 68.8% | viability, T/C (second compound 0.1 µM, first compound 0.00316 µM): 90.1% | viability, T/C (second compound 0.1 µM, first compound 0.01 µM): 79.2% | viability, T/C [3]: 73.5% | viability, T/C [4]: 66.6% | viability, T/C (second compound 0.316 µM, first compound 0.000316 µM): 61.4% | viability, T/C (second compound 0.316 µM, first compound 0.001 µM): 54.3% | viability, T/C (second compound 0.316 µM, first compound 0.00316 µM): 51.5% | viability, T/C (second compound 0.316 µM, first compound 0.01 µM): 56.3% | viability, T/C [5]: 59.7% | viability, T/C [6]: 46.3% | viability, T/C (second compound 1 µM, first compound 0.000316 µM): 42.7% | viability, T/C (second compound 1 µM, first compound 0.001 µM): 50.8% | viability, T/C (second compound 1 µM, first compound 0.00316 µM): 40.6% | viability, T/C (second compound 1 µM, first compound 0.01 µM): 36.9% | viability, T/C [7]: 40.8% | viability, T/C [8]: 40.7% | viability, T/C (second compound 3.16 µM, first compound 0.000316 µM): 44.5% | viability, T/C (second compound 3.16 µM, first compound 0.001 µM): 36.2% | viability, T/C (second compound 3.16 µM, first compound 0.00316 µM): 39.2% | viability, T/C (second compound 3.16 µM, first compound 0.01 µM): 39% | viability, T/C [9]: 44% | viability, T/C [10]: 34% | viability, T/C (second compound 10 µM, first compound 0.000316 µM): 44% | viability, T/C (second compound 10 µM, first compound 0.001 µM): 40.5% | viability, T/C (second compound 10 µM, first compound 0.00316 µM): 39.4% | viability, T/C (second compound 10 µM, first compound 0.01 µM): 39.5% | viability, T/C [11]: 47.6% | viability, T/C [12]: 31%

Nc1ccn(C2OC(CO)C(O)C2(F)F)c(=O)n1 (stereo unspecified) + CNC(=O)c1ccc(Nc2nc(OC3CCCC3)c3c(-c4ccc5nc(C)oc5c4)c[nH]c3n2)c(OC)c1
IC50 (second compound 0.0316 µM): 0.646 µM | IC50 (second compound 0.1 µM): 0.518 µM | IC50 (second compound 0.316 µM): 0.162 µM | IC50 (second compound 1 µM): < 0.0316 µM | IC50 (second compound 3.16 µM): < 0.0316 µM | IC50 (second compound 10 µM): < 0.0316 µM | viability, T/C [1]: 108% | viability, T/C [2]: 80.2% | viability, T/C [13]: 56.3% | viability, T/C [14]: 46.7% | viability, T/C [15]: 41.6% | viability, T/C [16]: 43.5% | viability, T/C [3]: 80.6% | viability, T/C [4]: 97.9% | viability, T/C [17]: 57.8% | viability, T/C [18]: 42.3% | viability, T/C [19]: 42.9% | viability, T/C [20]: 33.8% | viability, T/C [5]: 56.4% | viability, T/C [6]: 53.7% | viability, T/C [21]: 48% | viability, T/C [22]: 35.3% | viability, T/C [23]: 35% | viability, T/C [24]: 22.3% | viability, T/C [7]: 42.9% | viability, T/C [8]: 37.5% | viability, T/C [25]: 33.6% | viability, T/C [26]: 23.1% | viability, T/C [27]: 26.2% | viability, T/C [28]: 18% | viability, T/C [9]: 40% | viability, T/C [10]: 42.1% | viability, T/C [29]: 30.3% | viability, T/C [30]: 23.8% | viability, T/C [31]: 22.7% | viability, T/C [32]: 16.5% | viability, T/C [11]: 39.2% | viability, T/C [12]: 36.8% | viability, T/C [33]: 33.7% | viability, T/C [34]: 25.5% | viability, T/C [35]: 19.4% | viability, T/C [36]: 23.1%

O=c1[nH]cc(F)c(=O)[nH]1 + CNC(=O)c1ccc(Nc2nc(OC3CCCC3)c3c(-c4ccc5nc(C)oc5c4)c[nH]c3n2)c(OC)c1
IC50 (second compound 0.0316 µM): > 10 µM | IC50 (second compound 0.1 µM): 2.01 µM | IC50 (second compound 0.316 µM): 0.461 µM | IC50 (second compound 1 µM): < 0.0316 µM | IC50 (second compound 3.16 µM): < 0.0316 µM | IC50 (second compound 10 µM): < 0.0316 µM | viability, T/C [1]: 81.8% | viability, T/C [2]: 86% | viability, T/C [13]: 71.7% | viability, T/C [14]: 61.1% | viability, T/C [15]: 54.7% | viability, T/C [16]: 50.7% | viability, T/C [3]: 74% | viability, T/C [4]: 68.9% | viability, T/C [17]: 75.8% | viability, T/C [18]: 56.4% | viability, T/C [19]: 50.2% | viability, T/C [20]: 41.5% | viability, T/C [5]: 54% | viability, T/C [6]: 59.2% | viability, T/C [21]: 55.9% | viability, T/C [22]: 34.9% | viability, T/C [23]: 39.4% | viability, T/C [24]: 39.2% | viability, T/C [7]: 43.5% | viability, T/C [8]: 48.6% | viability, T/C [25]: 40.1% | viability, T/C [26]: 29.4% | viability, T/C [27]: 30.1% | viability, T/C [28]: 26% | viability, T/C [9]: 34.9% | viability, T/C [10]: 39.7% | viability, T/C [29]: 29% | viability, T/C [30]: 28.4% | viability, T/C [31]: 28.7% | viability, T/C [32]: 31.9% | viability, T/C [11]: 40.2% | viability, T/C [12]: 46% | viability, T/C [33]: 35.9% | viability, T/C [34]: 23.4% | viability, T/C [35]: 30.8% | viability, T/C [36]: 23.2%
